According to US20100292472A1, “PROPHYLACTIC AND THERAPEUTIC MEDICINE FOR MALARIA” (priority 2008, published 2010):
Like-named read-outs stand apart in the source and are kept apart here.

What was measured:
[1] = tested on: T. gondii strain 2F tachyzoites; assay: Test for growth inhibitory activity against T. gondii (β-gal colorimetric proliferation assay in Vero cells); format: cell-based, Toxoplasma gondii; settings: T. gondii 2F tachyzoites in Vero cells, 2 days
Method: To investigate growth inhibitory activity against T. gondii, the following various compounds were tested: inabenfide (Wako Pure Chemicals, Osaka, Japan), paclobutrazol (Wako Pure Chemicals, Osaka, Japan), uniconazole P (Wako Pure Chemicals, Osaka, Japan) and AMO-1618 (CALBIOCHEM, La Jolla, Calif.) as gibberellin inhibitors; thidiazuron (Wako Pure Chemicals, Osaka, Japan) and 6-benzyl aminopurine (Wako Pure Chemicals, Osaka, Japan) as cytokinins; and α-aminooxy acetic acid (Wako Pure Chemicals, Osaka, Japan) as an ethylene inhibitor.
For this test, T. gondii strain 2F tachyzoites were used. The strain 2F was established by transfection of the T. gondii strain RH with a β-galactosidase gene (β-gal, derived from Escherichia coli) [Reference: J. M. Dobrowolski and L. D. Sibley. Toxoplasma invasion of mammalian cells is powered by the actin cytoskeleton of the parasite. Cell 84, 933-939 (1996)]. The 2F strain was kindly provided by Dr. L. David Sibley (Washington University School of Medicine, St. Louis, Mo., US). As a host cell for the parasites, Vero cells were used. Vero cell cultures were incubated with RPMI 1640 medium containing 10% (v/v) FCS in 96-well plates for 2 days and then infected with 2.5×10^5 tachyzoites/well in RPMI 1640 medium containing 3% (v/v) FCS and various concentrations of the compounds. The tachyzoites were harvested after 2 days and the proliferation rate was monitored as a measure of β-gal activity in a colorimetric assay using chlorophenol red β-D-galactopyranoside. The proliferation rate of compound-untreated tachyzoites is set to 100% and the IC50 means the concentration of the compound that inhibits the proliferation rate by 50%.

[2] = Mice; Reported Data; cited from earlier work
[3] = Reported Data; cited from earlier work
P. falciparum strain 3D7 = assay: Test for growth inhibitory activity against P. falciparum (infected erythrocytes, Giemsa thin blood film); format: cell-based, Plasmodium falciparum; settings: for EC50: read-out: ED50 (50% growth inhibition concentration, EC50)
Method: To investigate growth inhibitory activity against a laboratory strain 3D7 of P. falciparum, the following various compounds were tested: inabenfide (Wako Pure Chemicals, Osaka, Japan), uniconazole P (Wako Pure Chemicals, Osaka, Japan), paclobutrazol (Wako Pure Chemicals, Osaka, Japan), AMO-1618 (CALBIOCHEM, La Jolla, Calif.) and FC-907 as gibberellin inhibitors; thidiazuron (Wako Pure Chemicals, Osaka, Japan), 6-benzyl aminopurine (Wako Pure Chemicals, Osaka, Japan), trans-zeatin (Wako Pure Chemicals, Osaka, Japan) and cis-zeatin (Sigma) as cytokinins; and α-aminooxy acetic acid (Wako Pure Chemicals, Osaka, Japan) as an ethylene inhibitor.
As a culture medium for the P. falciparum strain 3D7, filter-sterilized RPMI 1640 (pH 7.4) containing 10% (v/v) human serum and human erythrocytes at 3% hematocrit (the ratio of erythrocytes in a suspension thereof) was prepared. Each compound was dissolved at predetermined concentrations in an appropriate solvent (water, ethanol or DMSO) and added to wells. To each well, 3D7-infected erythrocytes were added at a starting parasitemia of 0.1% and the total volume was adjusted to 2.5 ml with the culture medium. The plates were incubated for 3 days. Control cultures were prepared so that instead of each compound solution, the equal volume of the corresponding solvent alone was contained, and similarly incubated. After the incubation, a thin blood film from each culture was prepared and stained with Giemsa (E. Merck, Germany). A total of 3000-erythrocytes/1 thin blood film were examined microscopically (immersed in oil, magnified to 1000 times), after which the malarial infection rate was determined using the equation below. The culture was maintained at 37° C. in a CO2—O2—N2 incubator (5% CO2, 5% O2, and 90% N2 atmosphere). The experiments were performed at least twice and each treatment was performed in triplicate. By comparison of the malarial infection rates obtained in control and compound-treated samples, the efficacy of each compound was assessed.
Malarial infection rate=[(number of infected erythrocytes)/(total number of examined erythrocytes)]×100
For compounds showing growth inhibitory activity, the 50% growth inhibition concentration (EC50) was calculated using the following equation.
X1: concentration of the compound showing <50% inhibition rate (μM) Y1: inhibition rate at the concentration X1 X2: concentration of the compound showing >50% inhibition rate (μM) Y2: inhibition rate at the concentration X2

[4] = Plasmodium falciparum, 3D7, Erythrocyte, 72 h
[5] = P. falciparum 3D7, 3 days incubation, Table 1

Row | SMILES | IC50 ([1]; Toxoplasma gondii, 48 h) [µM] | LD50 [2] [mg/kg] | Mutagenesis [3] | EC50 (P. falciparum strain 3D7; [4]) [µM] | IC50 ([1]; read-out: IC50 Toxoplasma) [µM] | EC50 (P. falciparum strain 3D7; [5]) [µM] | growth inhibition rate (Y1) (P. falciparum strain 3D7; concentration 10 μM (X1), FIG. 1) | growth inhibition rate (Y2) (P. falciparum strain 3D7; concentration 20 μM (X2), FIG. 1)
1 | O=C(Nc1ccccc1)Nc1cnns1 [Thidiazuron, thidiazuron] | 74.5 | >5000 | No | 17.5 |  |  |  | 
2 | Cc1cc(OC(=O)N2CCCCC2)c(C(C)C)cc1[N+](C)(C)C.[Cl-] [AMO-1618] |  | 0.36 |  |  | > 1000 | 10.3 | 48.9 | 85.4
3 | O=C(Nc1ccc(Cl)cc1C(O)c1ccccc1)c1ccncc1 (stereo not drawn) [Inabenfide, inabenfide] | 17 | >15000 | No | 4.47 |  |  |  | 
4 | CC(C)(C)[C@@H](O)[C@@H](Cc1ccc(Cl)cc1)n1cncn1 [Paclobutrazol, paclobutrazol] | 121 | >5000 |  | 27.1 |  |  |  | 
5 | C/C(=C\CNc1ncnc2nc[nH]c12)CO [trans-Zeatin, trans-zeatin] |  | 1300 |  |  |  | 651 |  | 
6 | NOCC(=O)O [α-Aminooxy acetic Acid, α-aminooxy acetic acid] | 96.9 |  |  | 20.3 |  |  |  | 
7 | CC(C)(C)[C@H](O)/C(=C\c1ccc(Cl)cc1)n1cncn1 [Uniconazole P, uniconazole P] |  | 1000 | No |  | 97.4 | 25 |  | 
8 | C/C(=C/CNc1ncnc2nc[nH]c12)CO [cis-Zeatin, cis-zeatin] |  |  |  |  |  | 742 |  | 
9 | c1ccc(CNc2ncnc3nc[nH]c23)cc1 [6-Benzylaminopurine, 6-benzyl aminopurine] |  | 1300 | No |  | > 300 | 19 |  | 
10 | CC1=CCCC(C)(C)C1C=CC(C)[N+](C)(C)C (stereo not drawn) [FC-907, N,N,N-trimethyl-1-methyl-(2′,6′,6′-trimethylcyclohex-2′-en-1′-yl) prop-2-enylammonium iodide] |  |  |  |  |  | 4.26 |  | 
